Source: ChEMBL document CHEMBL1201862, “PubChem BioAssay data set” (2004)
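Compound exposure: 48 hours, 5 concentrations, 96-well plates. GI50 is the concentration that inhibits growth by half.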 The source made the active and inactive calls. No stated cut-off is given here; in the data, active = GI50 up to about 1.1 µM and inactive = higher.

How the values were obtained:
Experiment in all cases: NCI anticancer screen, dose series, 48 h
DLD-1 = test system: DLD-1
DMS-114 = test system: DMS-114
DMS-273 = test system: DMS-273
HOP-18 = test system: HOP-18
LXFL 529 = test system: LXFL 529
RXF 631 = test system: RXF 631
XF498 = test system: XF498
BT-549 = test system: BT-549
MDA-N = test system: MDA-N

Measured: GI50

O=C1c2ccccc2C(=O)c2c(O)c(NCCCNCCO)cc(O)c21
inactive: DLD-1 6.49 µM | DMS-114 11 µM | DMS-273 4.97 µM | HOP-18 2.41 µM | LXFL 529 11.1 µM | RXF 631 6.34 µM | XF498 16 µM

COc1ccc(C(=O)Nc2ccccc2)cc1[N+](=O)[O-]
inactive: DLD-1 > 100 µM | DMS-114 52.4 µM | DMS-273 > 100 µM | LXFL 529 > 100 µM | RXF 631 > 100 µM | XF498 > 100 µM

CCOC(=O)c1c(CN2CCNCC2)nc2ccc(Cl)cc2c1-c1ccccc1
inactive: BT-549 13.1 µM | DLD-1 2.98 µM | DMS-114 1.91 µM | DMS-273 2.32 µM | HOP-18 1.79 µM | LXFL 529 1.74 µM | MDA-N 5.78 µM | RXF 631 2.56 µM | XF498 3.15 µM

O=C(c1cccc2ccccc12)N1CCC(C2CCN(C(=O)c3cccc4ccccc34)CC2)CC1
inactive: DLD-1 > 100 µM | DMS-114 > 100 µM | DMS-273 > 100 µM | HOP-18 > 100 µM | LXFL 529 > 100 µM | RXF 631 > 100 µM | XF498 89.3 µM

CC(NS(=O)(=O)c1ccc([N+](=O)[O-])cc1)C(=O)O (stereo not given)
inactive: DLD-1 > 100 µM | DMS-273 > 100 µM | HOP-18 > 100 µM | LXFL 529 > 100 µM | RXF 631 > 100 µM | XF498 > 100 µM

N#CSCc1nc2ccc(Cl)cc2c(-c2ccccc2)[n+]1[O-]
inactive: DMS-114 24.5 µM | HOP-18 19.5 µM | LXFL 529 13.9 µM | RXF 631 37.9 µM | XF498 17.4 µM

CCCCCC(=O)C(C)C1=Nc2nnc(CCCCCCCc3nnc4n3C(=O)C(C(C)C(=O)CCCCC)=N4)n2C1=O (stereo not given)
inactive: DLD-1 > 100 µM | DMS-114 > 100 µM | HOP-18 > 100 µM | LXFL 529 > 100 µM | RXF 631 > 100 µM | XF498 > 100 µM

Cc1c2c(cc[n+]1C)O[B-](c1ccccc1)(c1ccccc1)O2
inactive: DLD-1 60 µM | DMS-114 61.1 µM | DMS-273 36.5 µM | HOP-18 58.6 µM | LXFL 529 42.9 µM | RXF 631 67.6 µM | XF498 35 µM

O=[N+]([O-])c1cc(C(F)(F)F)cc2n[se]nc12
inactive: BT-549 2.81 µM | DLD-1 3.18 µM | DMS-114 2.36 µM | DMS-273 13.2 µM | HOP-18 3.14 µM | LXFL 529 1.72 µM | MDA-N 1.91 µM | RXF 631 11 µM | XF498 2.39 µM

COc1ccc(C2=NC(CO)[C@H](c3ccccc3)O2)cc1OC (stereo not given in full)
inactive: DLD-1 78 µM | DMS-114 > 100 µM | DMS-273 > 100 µM | LXFL 529 > 100 µM | RXF 631 > 100 µM | XF498 > 100 µM

CC1(C)C(=NNC(=O)C[N+](C)(C)C)C(C)(C)C1=NNC(=O)C[N+](C)(C)C
inactive: DLD-1 > 100 µM | DMS-114 > 100 µM | DMS-273 42.2 µM | HOP-18 > 100 µM | LXFL 529 > 100 µM | RXF 631 > 100 µM | XF498 > 100 µM
